Results on 15 compounds are retold here after US20250084095A1, “Aminopyrimidine Derivatives as Cyclin-Dependent Kinase Inhibitors” (Accutar Biotechnology Inc., priority 2023, published 2025).

One may read the GI50 as the concentration that inhibits growth by half. By IC50 is commonly meant the concentration needed to halve the response being measured.

Where only a bound is given, the exact number is not on record here.

Type in all cases: cell-based
For one assay, the system named is 22RV1 cells. Put plainly: Cell growth inhibition of 22RV1 cells (CellTiter-Glo). To be noted: Homo sapiens, 22Rv1, 120 h, 5 days, CellTiter-Glo, read-out: 22RV1 Cell Growh GI50. In a few lines: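 22RV1 cells were plated in RPMI1640 with FBS (20% in one version, 10% in the other) and dosed next day at various concentrations from DMSO stocks. After 5 days at 37 °C, viability was measured by CellTiter-Glo luminescence.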
(In general: Cellular ATP, detected with luciferase, serves as a proxy for viable cell number.)

The subject of assay [1] is Phospho-Rb (Ser807/811) in SW1573-CDK6 KO cells. As to the kind of experiment: Phospho-Rb expression inhibition in SW1573-CDK6 KO cells quantified by in cell Western. The note with it: Homo sapiens, 24 hours, read-out: SW1573 CDK6 KO pRb IC50. The protocol:
(§1) Parental SW1573 cells were obtained from the American Type Culture Collection (ATCC). CDK4 or CDK6 gene in […] cells was knocked out using the CRISPR-Cas9 technology. First, gRNA complex of CDK4 or CDK6 was prepared with Alt-R CRISPR-Cas9 tracrRNA and crRNA CDK4 (5′-[…]-3′ (SEQ ID NO: 4)) or CDK6 (5′-[…]-3′ (SEQ ID NO. 5)) (IDT-Integrated DNA Technologies), and then ribonucleoprotein (RNP) complex of CDK4 or CDK6 was prepared with respective gRNA complex and Alt-R S.p. Cas9 Nuclease V3 (IDT-Integrated DNA Technologies). Next, 5×10^4/10 μL SWJ1573 cells were electroporated with the CDK4 or CDK6 RNP complex and Alt-R Cas9 Electroporation Enhancer using Neon Transfection System (Thermo Fisher). Cells were then plated in a 96-well plate to select single clones for validation of CDK4 or CDK6 knockout by western blot analysis.
(§2) MCF7 cells were obtained from American Type Culture Collection (ATCC, HTB-22). SW1573-CDK6 KO and SW1573-CDK4 KO cells were generated by the CRISPR-Cas9 technology. All cells were plated in 96-well plates (VWR #10062-900, or Corning #3904) in 90 uL culture medium at a density of 20,000 cells/well in the respective growth medium containing 10% FBS and 1% Penicillin Streptomycin, and then incubated at 37° C. overnight. The following day, the test compound was administered to the cells by using 1000× compound stock solution prepared in DMSO at various concentrations. 1000× compound stock solution was first diluted in culturing medium to 10×, then 10 uL compound medium was added to each well in the cell plates. After administration of the compound, the cells were then incubated at 37° C. for 24 hours. Upon completion, the cells were washed with PBS briefly. 150 uL/well of 4% formaldehyde was added and the plates were incubated at room temperature for 20 mins. The cells were washed with PBS briefly, and permeabilized with 150 uL/well of ice cold 100% methanol for 10 mins. The cells were washed with PBS briefly and blocked with 100 uL/well LI-COR blocking buffer for 1 hr at room temperature with gentle shaking. The cells were incubated overnight at 4° C. with 50 uL primary antibody rabbit anti-Phospho-Rb (Ser807/811) (1: 500, Cell Signaling, #8516) and anti-Rb (1:200, Santa Cruz, sc-73598) diluted in Intercept Blocking Buffer (LI-COR, #927-60001) containing 0.1% Tween 20. The next day, the cells were washed with 200 uL PBS containing 0.1% Tween 20, 5×5 mins at room temperature with gentle shaking, and incubated with 50 uL secondary antibody, IRDye® 800CW Goat anti-Rabbit IgG (1:1000, LI-COR, #926-32211) and IRDye®680RD Goat anti-Mouse IgG (1:1000, LI-COR, #926-68070), in LI-COR blocking buffer with 0.2% Tween 20 for 1 hr at room temperature with gentle shaking. The cells were washed with 200 uL PBS containing 0.1% Tween 20, 5×5 mins at room temperature with gentle shaking. The cells were washed with PBS for 5 mins. 100 uL fresh PBS was added to each well and the plates were imaged on a LI-COR Odyssey CLX plate reader.

In assay [2] the test system is Phospho-Rb (Ser807/811) in SW1573-CDK4 KO cells. Put plainly: Phospho-Rb expression inhibition in SW1573-CDK4 KO cells quantified by in cell Western. To be noted: Homo sapiens, 24 hours, read-out: SW1573 CDK4 KO pRb IC50. The protocol: as §1, §2

For the compound `CC(C)n1c([C@@H]2CC2(F)F)nc2c(F)cc(-c3nc(N[C@@H]4C[C@H]5CO[C@H](O5)[C@H]4O)ncc3Cl)cc21` [Compound 216, (1S,3R,4S,5R)-3-((5-chloro-4-(2-((S)-2,2-difluorocyclopropyl)-4-fluoro-1-isopropyl-1H-benzo[d]imidazol-6-yl)pyrimidin-2-yl)amino)-6,8-dioxabicyclo[3.2.1]octan-4-ol], in the assay with 22RV1 cells, the concentration for 50% growth inhibition (GI50) was at most 0.12 µM. The 50% inhibitory concentration (IC50) in assay [1] is at most 0.04 µM; in assay [2], 0.15 to 1 µM.

As to `Cc1c(-c2nc(N[C@@H]3C[C@H]4CO[C@H](O4)[C@H]3O)ncc2Cl)sc2c(C(C)C)cn(C)c(=O)c12` [Compound 223, 2-(5-chloro-2-(((1S,3R,4S,5R)-4-hydroxy-6,8-dioxabicyclo[3.2.1]octan-3-yl)amino)pyrimidin-4-yl)-7-isopropyl-3,5-dimethylthieno[3,2-c]pyridin-4(5H)-one], in the assay on 22RV1 cells, the GI50 is at most 0.12 µM. In addition, the IC50 in assay [1] is at most 0.04 µM; in assay [2], 0.04 to 0.15 µM.

On to `Cc1c(-c2nc(N[C@@H]3C[C@H]4CO[C@H](O4)[C@H]3O)ncc2C(F)F)sc2c(C(C)C)cn(C)c(=O)c12` [Compound 227, 2-(5-(difluoromethyl)-2-(((1S,3R,4S,5R)-4-hydroxy-6,8-dioxabicyclo[3.2.1]octan-3-yl)amino)pyrimidin-4-yl)-7-isopropyl-3,5-dimethylthieno[3,2-c]pyridin-4(5H)-one], for which the GI50 in the assay on 22RV1 cells was at most 0.12 µM. Besides, the IC50 in assay [1] was at most 0.04 µM; in assay [2], 0.15 to 1 µM.

With `CCn1cc(C(C)C)c2sc(-c3nc(N[C@@H]4C[C@H]5CO[C@H](O5)[C@H]4O)ncc3Cl)c(C)c2c1=O` [Compound 230, 5-ethyl-2-(5-chloro-2-(((1S,3R,4S,5R)-4-hydroxy-6,8-dioxabicyclo[3.2.1]octan-3-yl)amino)pyrimidin-4-yl)-7-isopropyl-3-methylthieno[3,2-c]pyridin-4(5H)-one], the GI50 with 22RV1 cells was in the range of 0.12 to 0.45 µM. For the same compound, the IC50 is at most 0.04 µM in assay [1] and 0.15 to 1 µM in assay [2].

With `CC(C)(O)c1cnc2c(F)cc(-c3nc(N[C@@H]4C[C@H]5CO[C@H](O5)[C@H]4O)ncc3Cl)cc2c1Cl` [Compound 252, (1S,3R,4S,5R)-3-((5-chloro-4-(4-chloro-8-fluoro-3-(2-hydroxypropan-2-yl)quinolin-6-yl)pyrimidin-2-yl)amino)-6,8-dioxabicyclo[3.2.1]octan-4-ol], the GI50 in the assay on 22RV1 cells is at most 0.12 µM. Also, the 50% inhibitory concentration (IC50) in assay [1] was at most 0.04 µM; in assay [2], 0.15 to 1 µM.

For the compound `CC(C)(O)c1cnc2c(F)cc(-c3nc(N[C@@H]4C[C@H]5CO[C@H](O5)[C@H]4O)ncc3F)cc2c1Cl` [Compound 255, (1S,3R,4S,5R)-3-((4-(4-chloro-8-fluoro-3-(2-hydroxypropan-2-yl)quinolin-6-yl)-5-fluoropyrimidin-2-yl)amino)-6,8-dioxabicyclo[3.2.1]octan-4-ol], in the assay on 22RV1 cells, the GI50 is at most 0.12 µM. Also, the half-maximal inhibitory concentration (IC50) in assay [1] is at most 0.04 µM; in assay [2], over 1 µM.

Consider `Cc1c(C(C)(C)O)cnc2c(F)cc(-c3nc(N[C@@H]4C[C@H]5CO[C@H](O5)[C@H]4O)ncc3F)cc12` [Compound 256, (1S,3R,4S,5R)-3-((5-fluoro-4-(8-fluoro-3-(2-hydroxypropan-2-yl)-4-methylquinolin-6-yl)pyrimidin-2-yl)amino)-6,8-dioxabicyclo[3.2.1]octan-4-ol], for which the concentration for 50% growth inhibition (GI50) in the assay on 22RV1 cells was at most 0.12 µM. Further, the 50% inhibitory concentration (IC50) in assay [1] is at most 0.04 µM; in assay [2], over 1 µM.

`Cc1c(C(C)(C)O)cnc2c(F)cc(-c3nc(N[C@@H]4C[C@H]5CO[C@H](O5)[C@H]4O)ncc3Cl)cc12` [Compound 257, (1S,3R,4S,5R)-3-((5-chloro-4-(8-fluoro-3-(2-hydroxypropan-2-yl)-4-methylquinolin-6-yl)pyrimidin-2-yl)amino)-6,8-dioxabicyclo[3.2.1]octan-4-ol]: the 50% growth inhibitory concentration (GI50) in the assay on 22RV1 cells is at most 0.12 µM. Besides, the IC50 in assay [1] was at most 0.04 µM; in assay [2] it was 0.15 to 1 µM.

Consider `Cc1c(-c2nc(N[C@@H]3C[C@H]4CO[C@H](O4)[C@H]3O)ncc2Cl)sc2c(C(C)C)cnnc12` [Compound 259, (1S,3R,4S,5R)-3-((5-chloro-4-(4-isopropyl-7-methylthieno[3,2-c]pyridazin-6-yl)pyrimidin-2-yl)amino)-6,8-dioxabicyclo[3.2.1]octan-4-ol], for which the GI50 with 22RV1 cells is at most 0.12 µM. The IC50 was at most 0.04 µM in assay [1] and 0.15 to 1 µM in assay [2].

Take `COC(=O)N1CC[C@@H](c2nc3c(F)cc(-c4nc(N[C@@H]5C[C@H]6CO[C@H](O6)[C@H]5O)ncc4F)cc3n2C(C)C)C1` [Compound 265, methyl (R)-3-(4-fluoro-6-(5-fluoro-2-(((1S,3R,4S,5R)-4-hydroxy-6,8-dioxabicyclo[3.2.1]octan-3-yl)amino)pyrimidin-4-yl)-1-isopropyl-1H-benzo[d]imidazol-2-yl)pyrrolidine-1-carboxylate]: in the assay on 22RV1 cells, the 50% growth inhibitory concentration (GI50) was 0.12 to 0.45 µM. Also, the values for the IC50 in assay [1] and in assay [2] were 0.04 to 0.15 µM and over 1 µM, respectively.

Take `CC(C)n1c([C@@H]2CCOC2)nc2c(F)cc(-c3nc(N[C@@H]4C[C@H]5CO[C@H](O5)[C@H]4O)ncc3Cl)cc21` [Compound 268, (1S,3R,4S,5R)-3-((5-chloro-4-(4-fluoro-1-isopropyl-2-((S)-tetrahydrofuran-3-yl)-1H-benzo[d]imidazol-6-yl)pyrimidin-2-yl)amino)-6,8-dioxabicyclo[3.2.1]octan-4-ol]: in the assay with 22RV1 cells, the concentration for 50% growth inhibition (GI50) is at most 0.12 µM. In addition, the IC50 is 0.04 to 0.15 µM in assay [1] and over 1 µM in assay [2].

With `CC(C)n1c([C@H]2CCOC2)nc2c(F)cc(-c3nc(N[C@@H]4C[C@H]5CO[C@H](O5)[C@H]4O)ncc3F)cc21` [Compound 269, (1S,3R,4S,5R)-3-((5-fluoro-4-(4-fluoro-1-isopropyl-2-((R)-tetrahydrofuran-3-yl)-1H-benzo[d]imidazol-6-yl)pyrimidin-2-yl)amino)-6,8-dioxabicyclo[3.2.1]octan-4-ol], the 50% growth inhibitory concentration (GI50) with 22RV1 cells lay in the range of 0.12 to 0.45 µM. Also, the values for the concentration for half-maximal inhibition (IC50) in assay [1] and in assay [2] were 0.15 to 1 µM and over 1 µM, respectively.

With `CC(C)n1c([C@@H]2CCOC2)nc2c(F)cc(-c3nc(N[C@@H]4C[C@H]5CO[C@H](O5)[C@H]4O)ncc3F)cc21` [Compound 270, (1S,3R,4S,5R)-3-((5-fluoro-4-(4-fluoro-1-isopropyl-2-((S)-tetrahydrofuran-3-yl)-1H-benzo[d]imidazol-6-yl)pyrimidin-2-yl)amino)-6,8-dioxabicyclo[3.2.1]octan-4-ol], the GI50 in the assay on 22RV1 cells lay in the range of 0.12 to 0.45 µM. The half-maximal inhibitory concentration (IC50) was 0.04 to 0.15 µM in assay [1] and over 1 µM in assay [2].

On to `Cc1c(-c2nc(N[C@@H]3C[C@H]4CO[C@H](O4)[C@H]3O)ncc2Cl)sc2c(Cl)c(C(C)(C)O)cnc12` [Compound 275, (1S,3R,4S,5R)-3-((5-chloro-4-(7-chloro-6-(2-hydroxypropan-2-yl)-3-methylthieno[3,2-b]pyridin-2-yl)pyrimidin-2-yl)amino)-6,8-dioxabicyclo[3.2.1]octan-4-ol], for which, in the assay on 22RV1 cells, the 50% growth inhibitory concentration (GI50) was 0.45 to 3 µM. The 50% inhibitory concentration (IC50) was 0.04 to 0.15 µM in assay [1] and over 1 µM in assay [2].

Turning to `Cc1c(-c2nc(N[C@@H]3C[C@H]4CO[C@H](O4)[C@H]3O)ncc2F)sc2c(Cl)c(C(C)(C)O)cnc12` [Compound 276, (1S,3R,4S,5R)-3-((4-(7-chloro-6-(2-hydroxypropan-2-yl)-3-methylthieno[3,2-b]pyridin-2-yl)-5-fluoropyrimidin-2-yl)amino)-6,8-dioxabicyclo[3.2.1]octan-4-ol], the 50% growth inhibitory concentration (GI50) with 22RV1 cells lay in the range of 0.12 to 0.45 µM. For the same compound, the figures for the concentration for half-maximal inhibition (IC50) in assay [1] and in assay [2] were at most 0.04 µM and 0.15 to 1 µM, respectively.
